Reference: ChEMBL document CHEMBL1137173, “Synthesis of an unusual branched-chain sugar, 5-C-methyl-L-idopyranose for SAR studies of pyranmycins: implication for the future design of aminoglycoside antibiotics” (2004)
In brackets after ≈: the same amount, converted by molar mass.

How the values were obtained:
Ribosomal RNA A-site = test: Binding affinity towards decoding region at A-site of 16s rRNA; type: nucleic-acid assay; design: unit not given here
Staphylococcus aureus = test: Minimum inhibitory concentration required against Staphylococcus aureus; type: functional
Escherichia coli = test: Minimum inhibitory concentration required against Escherichia coli; type: functional
[1] = Staphylococcus aureus, read-out: MIC
[2] = Escherichia coli, read-out: MIC

SMILES | Activity (Ribosomal RNA A-site) | MIC (Staphylococcus aureus; [1]) | MIC (Escherichia coli; [2]) | MIC (Escherichia coli) | MIC (Staphylococcus aureus)
NC[C@@H]1O[C@H](O[C@H]2[C@@H](O)[C@H](O[C@@H]3[C@@H](O)[C@H](N)C[C@H](N)[C@H]3O[C@H]3O[C@H](CN)[C@@H](O)[C@H](O)[C@H]3N)O[C@@H]2CO)[C@H](N)[C@@H](O)[C@@H]1O [FRAMYCETIN] | -474 | 3 µM (≈ 1.84 µg/mL) | 2 µM (≈ 1.23 µg/mL) | – | –
NC[C@@H]1O[C@H](O[C@H]2[C@H](O[C@@H]3O[C@H](CN)[C@@H](O)[C@H](O)[C@@H]3O)[C@H](O)[C@H](N)C[C@H]2N)[C@@H](N)[C@@H](O)[C@@H]1O | -394 | 2 µM (≈ 0.967 µg/mL) | 9 µM (≈ 4.35 µg/mL) | – | –
C[C@@H]1O[C@@H](O[C@@H]2[C@H](O)[C@H](N)C[C@@H](N)[C@H]2O[C@H]2O[C@@H](CN)[C@@H](O)[C@H](O)[C@@H]2N)[C@@H](O)[C@@H](O)[C@@H]1O.Cl.Cl.Cl.Cl (stereo in doubt; form 1) | – | 15 µM | – | 91 µM | –
C[C@@H]1O[C@@H](O[C@@H]2[C@H](O)[C@H](N)C[C@@H](N)[C@H]2O[C@H]2O[C@@H](CN)[C@@H](O)[C@H](O)[C@@H]2N)[C@@H](O)[C@@H](O)[C@@H]1O.Cl.Cl.Cl.Cl (stereo in doubt; form 2) | – | – | – | 19 µM | 13 µM

More lines, now with the values ahead:

Activity (Ribosomal RNA A-site) | MIC (Staphylococcus aureus; [1]) | MIC (Escherichia coli; [2]) | MIC (Escherichia coli) | MIC (Staphylococcus aureus) | SMILES
-318 | 27 µM (≈ 13.5 µg/mL) | 87 µM (≈ 43.4 µg/mL) | – | – | C[C@]1(CO)O[C@@H](O[C@@H]2[C@H](O)[C@H](N)C[C@@H](N)[C@H]2O[C@H]2O[C@@H](CN)[C@@H](O)[C@H](O)[C@@H]2N)[C@@H](O)[C@@H](O)[C@@H]1O
-320 | – | – | – | – | C[C@@H]1O[C@@H](O[C@@H]2[C@H](O)[C@H](N)C[C@@H](N)[C@H]2O[C@H]2O[C@@H](CN)[C@@H](O)[C@H](O)[C@@H]2N)[C@@H](O)[C@@H](O)[C@@H]1O (stereo in doubt; form 1)
-320 | 3 µM (≈ 1.45 µg/mL) | 11 µM (≈ 5.33 µg/mL) | – | – | NC[C@@H]1O[C@H](O[C@H]2[C@H](O[C@@H]3O[C@H](CO)[C@@H](O)[C@H](O)[C@@H]3O)[C@H](O)[C@H](N)C[C@H]2N)[C@@H](N)[C@@H](O)[C@@H]1O
-315 | 7 µM (≈ 3.6 µg/mL) | 22 µM (≈ 11.3 µg/mL) | – | – | NC[C@@H]1O[C@H](O[C@H]2[C@H](O[C@@H]3OC(CO)(CO)[C@@H](O)[C@H](O)[C@@H]3O)[C@H](O)[C@H](N)C[C@H]2N)[C@@H](N)[C@@H](O)[C@@H]1O
-314 | – | – | – | – | C[C@@H]1O[C@@H](O[C@@H]2[C@H](O)[C@H](N)C[C@@H](N)[C@H]2O[C@H]2O[C@@H](CN)[C@@H](O)[C@H](O)[C@@H]2N)[C@@H](O)[C@@H](O)[C@@H]1O (stereo in doubt; form 2)
